Assay results reported in patent US8841321B2, “Quinoline derivatives as antibacterial agents” (Janssen Pharmaceutica NV, priority 2005, dated 2014).
Values after ≈ are worked out from the molar mass of the structure shown. Values belong to the molecule of their own block, whether it stands above or below them.

Columns and labels:
[1] = test system: STA 29213 (Staphylococcus aureus (ATCC29213)); assay: Microtitre plate assay, IC90 determination; assay type: cell-based; settings: for IC90 (μg/ml) STA 29213: Staphylococcus aureus (ATCC29213); for IC90: Staphylococcus aureus, ATCC29213, Staphylococcus aureus (ATCC29213), read-out: IC90 (μg/ml) STA 29213
Method: (§1) The bacteria used in this study were grown overnight in flasks containing 100 ml Mueller-Hinton Broth (Becton Dickinson—cat. no. 275730) in sterile de-ionized water, with shaking, at 37° C. Stocks (0.5 ml/tube) were stored at −70° C. until use. Bacteria titrations were performed in microtiter plates and colony forming units (CFUs) were determined. In general, an inoculum level of approximately 100 CFUs was used for susceptibility testing.
(§2) Flat-bottom, sterile 96-well plastic microtiter plates were filled with 180 μl of sterile deionized water, supplemented with 0.25% BSA. Subsequently, stock solutions (7.8× final test concentration) of compounds were added in 45 μl volumes in column 2. Serial five-fold dilutions (45 μl in 180 μl) were made directly in the microtiter plates from column 2 to reach column 11. Untreated control samples with (column 1) and without (column 12) inoculum were included in each microtiter plate. Depending on the bacteria type, approximately 10 to 60 CFU per well of bacteria inoculum (100 TCID50), in a volume of 100 μl in 2.8× Mueller-Hinton broth medium, was added to the rows A to H, except column 12. The same volume of broth medium without inoculum was added to column 12 in row A to H. The cultures were incubated at 37° C. for 24 hours under a normal atmosphere (incubator with open air valve and continuous ventilation). At the end of incubation, one day after inoculation, the bacterial growth was quantitated fluorometrically. Therefore resazurin (0.6 mg/ml) was added in a volume of 20 μl to all wells 3 hours after inoculation, and the plates were re-incubated overnight. A change in colour from blue to pink indicated the growth of bacteria. The fluorescence was read in a computer-controlled fluorometer (Cytofluor Biosearch) at an excitation wavelength of 530 nm and an emission wavelength of 590 nm. The % growth inhibition achieved by the compounds was calculated according to standard methods. The IC90 (expressed in μg/ml) was defined as the 90% inhibitory concentration for bacterial growth.

[2] = test system: SPN 6305 (Streptococcus pneumoniae (ATCC6305)); assay: Microtitre plate assay, IC90 determination; assay type: cell-based; settings: for IC90 (μg/ml) SPN 6305: Streptococcus pneumoniae (ATCC6305); for IC90: Streptococcus pneumoniae, ATCC6305, Streptococcus pneumoniae (ATCC6305), read-out: IC90 (μg/ml) SPN 6305
Method: as §1, §2

Compound: COc1nc2ccc(Br)cc2cc1C(c1ccccc1)C(O)(CCCCN1CCN(C)CC1)c1ccccc1 (single isomer, unassigned) [Compound 110]
IC90 (μg/ml) STA 29213 [1]: 9.33 µg/mL (≈ 15.9 µM)
IC90 (μg/ml) SPN 6305 [2]: 4.68 µg/mL (≈ 7.95 µM)

Compound: COc1nc2ccc(Br)cc2cc1C(c1ccccc1)C(O)(CCCCN1CCN(C)CC1)c1ccccc1 (single isomer, unassigned) [Compound 108]
IC90 (μg/ml) STA 29213 [1]: 8.31 µg/mL (≈ 14.1 µM)
IC90 (μg/ml) SPN 6305 [2]: 2.34 µg/mL (≈ 3.98 µM)

Compound: COc1nc2ccc(Br)cc2cc1C(c1ccccc1)C(O)(CCCCN(C)C)c1cc(F)ccc1F (stereo not shown) [Compound 14]
IC90 [1]: 14.3 µg/mL (≈ 25.1 µM)
IC90 (μg/ml) SPN 6305 [2]: 57.0 µg/mL (≈ 100 µM)

Compound: COc1nc2ccc(Br)cc2cc1C(c1ccccc1)C(O)(CCCCN1CCCC1)c1ccccc1 (racemic) [Compound 93]
IC90 (μg/ml) STA 29213 [1]: 11.16 µg/mL (≈ 19.9 µM)
IC90 (μg/ml) SPN 6305 [2]: 9.95 µg/mL (≈ 17.8 µM)

Compound: COc1ccc(C(O)(CCCCN2CCCCC2)C(c2ccccc2)c2cc3cc(Br)ccc3nc2OC)cc1 (racemic) [Compound 97]
IC90 (μg/ml) STA 29213 [1]: 1.91 µg/mL (≈ 3.16 µM)
IC90 (μg/ml) SPN 6305 [2]: 1.91 µg/mL (≈ 3.16 µM)

Compound: COc1nc2ccc(Br)cc2cc1C(c1ccccc1)C(O)(CCCCCN(C)C)c1ccc2ccccc2c1 (stereo not shown) [Compound 58]
IC90 (μg/ml) STA 29213 [1]: 4.2 µg/mL (≈ 7.03 µM)
IC90 (μg/ml) SPN 6305 [2]: 1.9 µg/mL (≈ 3.18 µM)

Compound: COc1nc2ccc(Cl)cc2cc1C(c1ccccc1)C(O)(CCCCN(C)C)c1ccc2ccccc2c1 (racemic) [Compound 79]
IC90 (μg/ml) STA 29213 [1]: 2.15 µg/mL (≈ 3.99 µM)
IC90 (μg/ml) SPN 6305 [2]: 2.7 µg/mL (≈ 5.01 µM)

Compound: COc1nc2ccccc2cc1C(c1ccc(Br)cc1)C(O)(CCCCN(C)C)c1ccc2ccccc2c1 (stereo not shown) [Compound 65]
IC90 (μg/ml) STA 29213 [1]: 1.85 µg/mL (≈ 3.17 µM)
IC90 (μg/ml) SPN 6305 [2]: 2.32 µg/mL (≈ 3.98 µM)

Compound: COc1nc2ccc(Br)cc2cc1C(c1ccccc1)C(O)(CCCCN1CCN(C)CC1)c1ccccc1 (single isomer, unassigned) [Compound 111]
IC90 (μg/ml) STA 29213 [1]: 9.33 µg/mL (≈ 15.9 µM)
IC90 (μg/ml) SPN 6305 [2]: 2.09 µg/mL (≈ 3.55 µM)

Compound: COc1nc2ccc(Br)cc2cc1C(c1ccccc1)C(O)(CCCCN(C)C(C)C)c1ccccc1 (single isomer, unassigned) [Compound 88]
IC90 (μg/ml) STA 29213 [1]: 11.2 µg/mL (≈ 19.9 µM)
IC90 (μg/ml) SPN 6305 [2]: 6.3 µg/mL (≈ 11.2 µM)

Compound: COc1nc2ccc(Br)cc2cc1C(c1ccccc1)C(O)(CCCCN1CCCCC1)c1ccccc1 (single isomer, unassigned) [Compound 101]
IC90 (μg/ml) STA 29213 [1]: 9.09 µg/mL (≈ 15.8 µM)
IC90 (μg/ml) SPN 6305 [2]: 9.09 µg/mL (≈ 15.8 µM)

Compound: COc1nc2ccc(Br)cc2cc1C(c1ccccc1)C(O)(CCCCN(C)C)c1cc(F)cc(F)c1 (stereo not shown) [Compound 12]
IC90 (μg/ml) STA 29213 [1]: 45.2 µg/mL (≈ 79.4 µM)
IC90 (μg/ml) SPN 6305 [2]: 11.4 µg/mL (≈ 20 µM)

Compound: COc1nc2ccccc2cc1C(c1ccc(Br)cc1)C(O)(CCCCN(C)C)c1ccc2ccccc2c1 (stereo not shown) [Compound 66]
IC90 (μg/ml) STA 29213 [1]: 1.85 µg/mL (≈ 3.17 µM)
IC90 (μg/ml) SPN 6305 [2]: 1.85 µg/mL (≈ 3.17 µM)

Compound: COc1nc2ccc(Br)cc2cc1C(c1ccccc1)C(O)(CCCCN1CCC(C)CC1)c1ccc2ccccc2c1 (racemic) [Compound 103]
IC90 (μg/ml) STA 29213 [1]: 1.8 µg/mL (≈ 2.82 µM)
IC90 (μg/ml) SPN 6305 [2]: 0.4 µg/mL (≈ 0.627 µM)

Compound: COc1nc2ccc(Br)cc2cc1C(c1ccccc1)C(O)(CCCCN(C)C)c1ccc2c(c1)OCO2 (stereo not shown) [Compound 10]
IC90 [1]: 11.5 µg/mL (≈ 19.9 µM)
IC90 [2]: 10.3 µg/mL (≈ 17.8 µM)

Compound: COc1nc2ccc(Br)cc2cc1C(c1ccccc1)C(O)(CCCCN(C)C)c1cccnc1 (stereo not shown) [Compound 16]
IC90 (μg/ml) STA 29213 [1]: 8.5 µg/mL (≈ 15.9 µM)
IC90 (μg/ml) SPN 6305 [2]: 8.5 µg/mL (≈ 15.9 µM)

Compound: COc1nc2ccc(Br)cc2cc1C(c1ccccc1)C(O)(CCCCN(C)C(C)C)c1ccccc1 (single isomer, unassigned) [Compound 90]
IC90 (μg/ml) STA 29213 [1]: 2.24 µg/mL (≈ 3.99 µM)
IC90 (μg/ml) SPN 6305 [2]: 2.51 µg/mL (≈ 4.47 µM)

Compound: COc1nc2ccc(Br)cc2cc1C(c1ccccc1)C(O)(CCCCN1CCN(C)CC1)CCC1CCCCC1 (single isomer, unassigned) [Compound 125]
IC90 (μg/ml) STA 29213 [1]: 9.87 µg/mL (≈ 15.9 µM)
IC90 (μg/ml) SPN 6305 [2]: 4.95 µg/mL (≈ 7.95 µM)

Compound: COc1nc2ccc(Br)cc2cc1C(c1ccccc1)C(O)(CCCCN1CCN(C)CC1)c1ccccc1 (single isomer, unassigned) [Compound 109]
IC90 (μg/ml) STA 29213 [1]: 9.33 µg/mL (≈ 15.9 µM)
IC90 (μg/ml) SPN 6305 [2]: 5.25 µg/mL (≈ 8.92 µM)

The next lines start with the values.

IC90 (μg/ml) STA 29213 [1]: 4 µg/mL (≈ 6.31 µM)
IC90 (μg/ml) SPN 6305 [2]: 2.52 µg/mL (≈ 3.98 µM)
Compound: COc1ccc(C(c2cc3cc(Br)ccc3nc2OC)C(O)(CCCCN2CCCCC2)c2ccc(OC)cc2)cc1 (single isomer, unassigned) [Compound 169]

IC90 (μg/ml) STA 29213 [1]: 9.13 µg/mL (≈ 17.8 µM)
IC90 (μg/ml) SPN 6305 [2]: 2.29 µg/mL (≈ 4.46 µM)
Compound: COc1nc2ccc(Br)cc2cc1C(c1ccccc1)C(O)(CCCCN(C)C)CC(C)C (racemic) [Compound 117]

IC90 (μg/ml) STA 29213 [1]: 2.02 µg/mL (≈ 3.16 µM)
IC90 [2]: 2.27 µg/mL (≈ 3.55 µM)
Compound: CN(C)CCCCC(O)(c1ccc2ccccc2c1)C(c1ccccc1)c1cc2cc(Br)ccc2nc1N1CCOCC1 (stereo not shown) [Compound 178]

IC90 (μg/ml) STA 29213 [1]: 1.85 µg/mL (≈ 3.17 µM)
IC90 (μg/ml) SPN 6305 [2]: 2.07 µg/mL (≈ 3.55 µM)
Compound: COc1nc2ccccc2cc1C(c1cccc(Br)c1)C(O)(CCCCN(C)C)c1ccc2ccccc2c1 (single isomer, unassigned) [Compound 160]

IC90 (μg/ml) STA 29213 [1]: 2.44 µg/mL (≈ 3.98 µM)
IC90 (μg/ml) SPN 6305 [2]: 2.74 µg/mL (≈ 4.47 µM)
Compound: COc1ccc(C(c2cc3cc(Br)ccc3nc2OC)C(O)(CCCCN(C)C)c2ccc3ccccc3c2)cc1 (single isomer, unassigned) [Compound 157]

IC90 (μg/ml) STA 29213 [1]: 8.36 µg/mL (≈ 15.8 µM)
IC90 (μg/ml) SPN 6305 [2]: 10.53 µg/mL (≈ 20 µM)
Compound: COc1nc2ccc(Br)cc2cc1C(c1ccccc1)C(O)(CCCCN(C)C)CCC(C)C (racemic) [Compound 120]

IC90 (μg/ml) STA 29213 [1]: 1.85 µg/mL (≈ 3.17 µM)
IC90 (μg/ml) SPN 6305 [2]: 2.07 µg/mL (≈ 3.55 µM)
Compound: COc1nc2ccccc2cc1C(c1cccc(Br)c1)C(O)(CCCCN(C)C)c1ccc2ccccc2c1 (single isomer, unassigned) [Compound 162]

IC90 (μg/ml) STA 29213 [1]: 1.4 µg/mL (≈ 2.27 µM)
IC90 (μg/ml) SPN 6305 [2]: 0.31 µg/mL (≈ 0.502 µM)
Compound: COc1nc2ccc(Br)cc2cc1C(c1ccc(Cl)cc1)C(O)(CCCCN(C)C)c1ccc2ccccc2c1 (single isomer, unassigned) [Compound 164]

IC90 (μg/ml) STA 29213 [1]: 1.95 µg/mL (≈ 3.16 µM)
IC90 (μg/ml) SPN 6305 [2]: 2.19 µg/mL (≈ 3.55 µM)
Compound: COc1ccc(C(c2cc3cc(Br)ccc3nc2OC)C(O)(CCCCN2CCCCC2)c2ccc(C)cc2)cc1 (single isomer, unassigned) [Compound 167]

IC90 (μg/ml) STA 29213 [1]: 22.07 µg/mL (≈ 35.5 µM)
IC90 (μg/ml) SPN 6305 [2]: 4.94 µg/mL (≈ 7.94 µM)
Compound: COc1nc2ccc(Br)cc2cc1C(c1ccc(Cl)cc1)C(O)(CCCCN1CCCCC1)c1ccc(C)cc1 (single isomer, unassigned) [Compound 171]

IC90 (μg/ml) STA 29213 [1]: 4.52 µg/mL (≈ 7.08 µM)
IC90 (μg/ml) SPN 6305 [2]: 4.52 µg/mL (≈ 7.08 µM)
Compound: CN(C)CCCCC(O)(c1ccc2ccccc2c1)C(c1ccccc1)c1cc2cc(Br)ccc2nc1N1CCOCC1 (stereo not shown) [Compound 177]

IC90 (μg/ml) STA 29213 [1]: 1.85 µg/mL (≈ 3.17 µM)
IC90 (μg/ml) SPN 6305 [2]: 2.07 µg/mL (≈ 3.55 µM)
Compound: COc1nc2ccccc2cc1C(c1cccc(Br)c1)C(O)(CCCCN(C)C)c1ccc2ccccc2c1 (single isomer, unassigned) [Compound 161]

IC90 (μg/ml) STA 29213 [1]: 9.76 µg/mL (≈ 15.9 µM)
IC90 (μg/ml) SPN 6305 [2]: 5.49 µg/mL (≈ 8.92 µM)
Compound: COc1nc2ccc(Br)cc2cc1C(c1ccccc1)C(O)(CCCCN1CCCCC1)CCCc1ccccc1 (single isomer, unassigned) [Compound 146]

IC90 (μg/ml) STA 29213 [1]: 8.74 µg/mL (≈ 15.8 µM)
IC90 (μg/ml) SPN 6305 [2]: 6.19 µg/mL (≈ 11.2 µM)
Compound: COc1nc2ccc(Br)cc2cc1C(c1ccccc1)C(O)(CCCCN(C)C)CCc1ccco1 (single isomer, unassigned) [Compound 130]

IC90 (μg/ml) STA 29213 [1]: 3.81 µg/mL (≈ 6.31 µM)
IC90 (μg/ml) SPN 6305 [2]: 1.91 µg/mL (≈ 3.16 µM)
Compound: COc1ccc(C(c2cc3cc(Br)ccc3nc2OC)C(O)(CCCCN2CCCCC2)c2ccccc2)cc1 (single isomer, unassigned) [Compound 165]

IC90 (μg/ml) STA 29213 [1]: 10.41 µg/mL (≈ 15.8 µM)
IC90 (μg/ml) SPN 6305 [2]: 8.27 µg/mL (≈ 12.6 µM)
Compound: COc1nc2ccc(Br)cc2cc1C(c1ccc(Cl)cc1)C(O)(CCCCN1CCN(C)CC1)CCC1CCCCC1 (single isomer, unassigned) [Compound 174]
